Measured values as given in PMC3321104 (Bioorganic & medicinal chemistry letters, 2012).
Like-named read-outs stand apart in the source and are kept apart here.

Key:
[1] = system: chloroquine-resistant P. falciparum strain W2
Vero cell = Vero cell toxicity; assay type: cell-based; details: concentrations up to 25 μM
[2] = system: chloroquine-resistant P. falciparum strain W2; test: microbe, parasite or virus in culture; details: Plasmodium falciparum

CC1=C(CCCCC[P+](c2ccccc2)(c2ccccc2)c2ccccc2)C(=O)c2ccccc2C1=O [9n]
fold greater activity than control 4a [1]: 3–7 fold

CC1=C(CCCC[P+](c2ccccc2)(c2ccccc2)c2ccccc2)C(=O)c2ccccc2C1=O [9o, (4-(3-methyl-1,4-dioxo-1,4-dihydronaphthalen-2-yl)butyl)triphenyl-phosphonium methanesulfonate]
Vero cell toxicity (in words) (Vero cell): not displaying toxicity at 25 μM

O=C(Cn1ccnc1[N+](=O)[O-])NCc1ccccc1 [BNZ, benznidazole]
Vero cell toxicity (in words) (Vero cell): non-toxic

CCN(CC)CCCC(C)Nc1ccnc2cc(Cl)ccc12 (centres unmarked) [CQ, chloroquine]
IC50 ([2]; W2, read-out: IC50 (nM), P. falciparum growth): 66.9 ± 2.3 nM
IC50 ([2]; W2, read-out: IC50, P. falciparum W2): 66.9 nM
